Assay [1] has as its system Staphylococcus aureus. As to the kind of experiment: Inhibition of Staphylococcus aureus LmrS expressed in Escherichia coli KAM32 harboring pSP72 assessed as decrease of ethidium bromide efflux at 0.01 mM after 6 mins by fluorescence spectrophotometer relative to control.
Assay [2] concerns Escherichia coli. As to the kind of experiment: Antibacterial activity against Escherichia coli KAM32 harboring pSP72 by broth microdilution method. The class given is functional. In general terms: In broth dilution the organism is exposed to a series of concentrations in liquid medium.
Assay [3] concerns Escherichia coli. As to the kind of experiment: Inhibition of ethidium bromide accumulation in Escherichia coli KAM32 harboring pSP72 at 100 uM by fluorescence spectrophotometer. The format is functional, organism-based.
In assay [4] the test system is Escherichia coli. Briefly: Antibacterial activity against Escherichia coli KAM32 harboring Staphylococcus aureus cloned pSP72 lmrS by broth microdilution method. The format is functional.
Assay [5] has as its system Escherichia coli. Briefly: Ratio of MIC for Escherichia coli KAM32 harboring cloned pSP72 lmrS to MIC for Escherichia coli KAM32 harboring pSP72. The format is functional.
In assay [6] the test system is Escherichia coli. As to the kind of experiment: Antibacterial activity against Escherichia coli KAM32 harboring Staphylococcus aureus cloned pSP72 lmrS by broth microdilution method in presence of efflux pump inhibitor CCCP. The format is functional.
In assay [7] the test system is Staphylococcus aureus. Briefly: Inhibition of Staphylococcus aureus LmrS expressed in Escherichia coli KAM32 harboring pSP72 assessed as decrease of ethidium bromide accumulation at 100 uM by fluorescence spectrophotometer relative to control.

Values after ≈ are worked out from the molar mass of the structure shown. Active and inactive are the calls of the source. No cut-off for these calls is given here.

With `N#CC(C#N)=NNc1cccc(Cl)c1` [CARBONYL CYANIDE M-CHLOROPHENYLHYDRAZONE], the inhibition in the assay with Staphylococcus aureus [1] is 40%. Also, inhibition of growth in the assay on Escherichia coli [2] (MIC) required 8 µg/mL (≈ 39.1 µM). In addition, the inhibition entry in the assay on Escherichia coli [3] is “inactive”.
As to `O=C(N[C@H](CO)[C@H](O)c1ccc([N+](=O)[O-])cc1)C(Cl)Cl` [CHLORAMPHENICOL], the MIC against Escherichia coli [4] is 3.13 µg/mL (≈ 9.69 µM); against Escherichia coli [2], 0.39 µg/mL (≈ 1.21 µM). Further, the MIC ratio in the assay on Escherichia coli [5] was found to be 8.
For `CC[C@H]1OC(=O)[C@H](C)[C@@H](O[C@H]2C[C@@](C)(OC)[C@@H](O)[C@H](C)O2)[C@H](C)[C@@H](O[C@@H]2O[C@H](C)C[C@H](N(C)C)[C@H]2O)[C@](C)(O)C[C@@H](C)C(=O)[C@H](C)[C@@H](O)[C@]1(C)O` [ERYTHROMYCIN], the MIC in the assay with Escherichia coli [4] is 15.6 µg/mL (≈ 21.3 µM); in the assay with Escherichia coli [2] it was 1.9 µg/mL (≈ 2.59 µM). Also, the MIC ratio with Escherichia coli [5] was found to be 8.2.
In the case of `CS(=O)(=O)c1ccc([C@@H](O)[C@@H](CF)NC(=O)C(Cl)Cl)cc1` [FLORFENICOL], the MIC in the assay with Escherichia coli [4] is 3.13 µg/mL (≈ 8.74 µM); with Escherichia coli [2], 0.39 µg/mL (≈ 1.09 µM). The MIC ratio in the assay on Escherichia coli [5] was determined as 8.
Turning to `CC(=O)O[C@H]1C[C@@]2(C)[C@@H](C[C@@H](O)[C@H]3[C@@]4(C)CC[C@@H](O)[C@@H](C)[C@@H]4CC[C@@]32C)/C1=C(\CCC=C(C)C)C(=O)O` [FUSIDIC ACID], the MIC was 250 µg/mL (≈ 484 µM) against Escherichia coli [4], 31.2 µg/mL (≈ 60.5 µM) in the assay with Escherichia coli [2] and 62.5 µg/mL with Escherichia coli [6]. Further, the MIC ratio in the assay on Escherichia coli [5] came out at 8.
With `COc1c(N2CCNC(C)C2)c(F)cc2c(=O)c(C(=O)O)cn(C3CC3)c12` (stereo unspecified) [GATIFLOXACIN], the MIC came out at 0.08 µg/mL (≈ 0.213 µM) in the assay on Escherichia coli [4] and 0.02 µg/mL (≈ 0.0533 µM) against Escherichia coli [2]. Further, the MIC ratio in the assay with Escherichia coli [5] turned out to be 4.1.
With `CC[n+]1c(-c2ccccc2)c2cc(N)ccc2c2ccc(N)cc21.[Br-]` [HOMIDIUM BROMIDE], the inhibition in the assay on Staphylococcus aureus [7] stood at 30%. For the same molecule, the minimum inhibitory concentration (MIC) in the assay with Escherichia coli [4] worked out at 62.5 µg/mL; against Escherichia coli [2], 7.8 µg/mL. For the same molecule, in the assay with Escherichia coli [5], the MIC ratio came out at 8.
As to `NC[C@H]1O[C@H](O[C@H]2[C@H](O)[C@@H](O[C@H]3O[C@H](CO)[C@@H](O)[C@H](N)[C@H]3O)[C@H](N)C[C@@H]2N)[C@H](O)[C@@H](O)[C@@H]1O` [KANAMYCIN], the values for the MIC against Escherichia coli [4] and against Escherichia coli [2] were 125 µg/mL (≈ 258 µM) and 15.6 µg/mL (≈ 32.3 µM), respectively. Also, the MIC ratio in the assay with Escherichia coli [5] stood at 8.
For `CCC[C@@H]1C[C@@H](C(=O)N[C@@H]([C@H]2O[C@H](SC)[C@H](O)[C@@H](O)[C@H]2O)[C@@H](C)O)N(C)C1` [LINCOMYCIN] the same measures were 125 µg/mL (≈ 307 µM), 31.2 µg/mL (≈ 76.9 µM) and 4.
For the molecule `CC(=O)NC[C@H]1CN(c2ccc(N3CCOCC3)c(F)c2)C(=O)O1` [LINEZOLID], the minimum inhibitory concentration (MIC) against Escherichia coli [4] worked out at 31.2 µg/mL (≈ 92.6 µM); in the assay with Escherichia coli [2] it was 1.95 µg/mL (≈ 5.78 µM). Further, the MIC ratio in the assay with Escherichia coli [5] stood at 16.
For `CN(C)[C@@H]1C(O)=C(C(N)=O)C(=O)[C@@]2(O)C(O)=C3C(=O)c4c(O)cccc4[C@@](C)(O)[C@H]3[C@H](O)[C@@H]12` [OXYTETRACYCLINE] the same measures were 0.39 µg/mL (≈ 0.847 µM), 0.1 µg/mL (≈ 0.217 µM) and 4.
`COC(=O)[C@H]1[C@H]2C[C@@H]3c4[nH]c5cc(OC)ccc5c4CCN3C[C@H]2C[C@@H](OC(=O)c2cc(OC)c(OC)c(OC)c2)[C@@H]1OC` [RESERPINE] displayed an MIC against Escherichia coli [2] of 62 µg/mL (≈ 102 µM).
For `CO[C@H]1/C=C/O[C@@]2(C)Oc3c(C)c(O)c4c(O)c(c(/C=N/N5CCN(C)CC5)c(O)c4c3C2=O)NC(=O)/C(C)=C\C=C\[C@H](C)[C@H](O)[C@@H](C)[C@@H](O)[C@@H](C)[C@H](OC(C)=O)[C@@H]1C` [RIFAMPIN], the figures for the MIC against Escherichia coli [4] and against Escherichia coli [2] were 3.9 µg/mL (≈ 4.74 µM) and 1.9 µg/mL (≈ 2.31 µM), respectively. For the same molecule, the MIC ratio with Escherichia coli [5] was found to be 2.1.
For `CCCCCCCCCCCCOS(=O)(=O)[O-].[Na+]` [SODIUM LAURYL SULFATE], the figures for the MIC with Escherichia coli [4] and with Escherichia coli [2] were 250 µg/mL and 31.2 µg/mL, respectively. The MIC ratio in the assay on Escherichia coli [5] turned out to be 8.
Regarding `CN[C@@H]1[C@H](O[C@H]2[C@H](O[C@H]3[C@H](O)[C@@H](O)[C@H](N=C(N)N)[C@@H](O)[C@@H]3N=C(N)N)O[C@@H](C)[C@]2(O)C=O)O[C@@H](CO)[C@H](O)[C@H]1O` [STREPTOMYCIN], the figures for the MIC in the assay with Escherichia coli [4] and against Escherichia coli [2] were 6.25 µg/mL (≈ 10.7 µM) and 0.78 µg/mL (≈ 1.34 µM), respectively. For the same molecule, in the assay with Escherichia coli [5], the MIC ratio stood at 8.
On the same counts, the results for `COc1cc(NS(=O)(=O)c2ccc(N)cc2)nc(OC)n1` [SULFADIMETHOXINE] are 9.76 µg/mL (≈ 31.4 µM), 4.88 µg/mL (≈ 15.7 µM) and 2.
For `[Cl-].c1ccc([P+](c2ccccc2)(c2ccccc2)c2ccccc2)cc1` [TETRAPHENYLPHOSPHONIUM CHLORIDE] the same measures were 156 µg/mL, 9.76 µg/mL and 16.
For `COc1cc(Cc2cnc(N)nc2N)cc(OC)c1OC` [TRIMETHOPRIM], the MIC in the assay with Escherichia coli [4] is 0.16 µg/mL (≈ 0.551 µM); against Escherichia coli [2], 0.02 µg/mL (≈ 0.0689 µM). In addition, the MIC ratio in the assay on Escherichia coli [5] turned out to be 8.2.
As to Cetyltrimethylammonium bromide, the MIC in the assay with Escherichia coli [4] amounted to 7.8 µg/mL; with Escherichia coli [2], 3.9 µg/mL.

One may read the inhibition as the drop in the measured response relative to a control, in per cent. Broadly, the MIC is the lowest concentration that inhibits growth of the organism.

The values are drawn from ChEMBL document CHEMBL1687808, “LmrS is a multidrug efflux pump of the major facilitator superfamily from Staphylococcus aureus” (2010).
